Tests used:
C57BL/6 mice [1] = experiment: MPTP mouse model of Parkinson's disease, pole test; type: in vivo
From the text: (§1) Three-month-old male C57BL/6 mice were housed in groups of 5 animals per cage (50 cm×25 cm×20 cm) in a temperature- and humidity-controlled environment with ad libitum access to food and water. Animals were maintained on a 12 hr light/dark schedule, with lights on at 7 A.M.
(§2) Six groups of mice were used: (1) the control mice treated with saline and vehicle (n=10), (2) the N-[2-(5-methoxy-indol-3-yl)-ethyl]-comanilamide control mice treated with saline and N-[2-(5-methoxy-indol-3-yl)-ethyl]-comanilamide at 100 or 200 mg/kg (n=5, respectively), (3) the MPTP mice treated with MPTP and vehicle (n=10) and (4) the N-[2-(5-methoxy-indol-3-yl)-ethyl]-comanilamide-treated MPTP mice treated with MPTP and N-[2-(5-methoxy-indol-3-yl)-ethyl]-comanilamide at 100 or 200 mg/kg (n=10, respectively). Mice received daily (i.p.) injections of saline or MPTP (30 mg/kg/day) dissolved in physiological saline for five consecutive days to induce Parkinsonism. N-[2-(5-methoxy-indol-3-yl)-ethyl]-comanilamide or vehicle was administered (i.p.) once per day for 17 days, starting on the first day of MPTP injections. Open field test, pole test, forepaw stride length test and traction test were conducted on day 14, 15, 16 and 17 after the first injections of MPTP, respectively.
In the pole test, the mouse was placed head upward on the top of a vertical wooden rough-surfaced pole (diameter: 1 cm, height: 50 cm), then allowed to descend five times. Each mouse was habituated to the apparatus two sessions (one session per day) before the day of first MPTP injections. The total time until the mouse reached the floor with its four paws was recorded (T-total) as well as the time needed for the mouse to turn completely head downward (T-turn). For each session of five descents, the best performance was kept for the T-turn and T-total. If the mouse was unable to turn completely downwards, fell or slipped down, the default value of 20 s was taken into account.

[2] = tested on: rat primary cortical neurons; experiment: Neurite outgrowth in rat primary cortical neurons; type: cell-based
Procedure: The aim of this study was to assess the potential effect of N-[2-(5-methoxy-indol-3-yl)-ethyl]-comanilamide (100 nM) after 5 days of culture on neurite outgrowth in rat primary cortical neurons. The study used three separate cultures (n=6 wells per condition); the mean value of the 3 cultures (+/−sem) was calculated.
Rat cortical neurons were cultured as described by Singer et al., 1999. Briefly pregnant female rats of 15 days gestation are killed by cervical dislocation (Rats Wistar; Janvier) and the fetuses removed from the uterus. The cortex are removed and placed in ice-cold medium of Leibovitz (L15; Invitrogen) containing 1% of Penicillin-Streptomycin (PS; Invitrogen) and 1% of bovine serum albumin (BSA; Sigma). Cortex are dissociated by trypsinisation for 20 min at 37° C. (Trypsin EDTA 1×; Invitrogen) diluted in PBS without calcium and magnesium. The reaction is stopped by the addition of Dulbecco's modified Eagle's medium (DMEM; Invitrogen) containing DNAase I grade II (0.1 mg/ml; Roche Diagnostic) and 10% of fetal calf serum (FCS; Invitrogen). Cells are then mechanically dissociated by 3 passages through a 10 ml pipette. Cells are then centrifuged at 180×g for 10 min at 10° C. The supernatant is discarded and the cells of pellet are re-suspended in a defined culture medium consisting of Neurobasal (Invitrogen) supplemented with B27 (2%; Invitrogen), L-glutamine (0.2 mM; Invitrogen) and 1% of PS solution with 10 ng/ml of Brain-derived neurotrophic factor (BDNF).
For the neurite outgrowth assay, the cells are seed with test compound A (at 100 nM) and reference compound (BDNF at 10 ng/ml used as reference control) on defined medium (Neurobasal supplemented with 2% of B27, 0.2 mM of L-glutamine and 1% of PS).
The cultures were done (a) without BDNF in order to analyse the neurotrophic effect of compounds alone and (b) with low BDNF concentration (0.5 ng/ml) in order to analyse the synergic neurotrophic effect of N-[2-(5-methoxy-indol-3-yl)-ethyl]-comanilamide with the growth factor.
After 5 days of culture in presence of N-[2-(5-methoxy-indol-3-yl)-ethyl]-comanilamide and reference, cells were fixed by a cool solution of ethanol (95%) and acetic acid (5%) for 10 min. After permeabilization with 0.1% of saponin, cells were incubated with monoclonal antibody anti microtubule associated protein 2 (MAP-2; Sigma). This antibody stains specifically cell bodies and neurite of neurons. […] Nuclei of neurons were labeled by a fluorescent marker (Hoechst solution, SIGMA). Per well, 20 pictures were taken using InCell Analyzer™ 1000 (GE Healthcare) with 20× magnification. All images were done in the same conditions. Analysis of the neuritis networks and neuron were assessed using Developer software (GE Healthcare). […]

PC12 cells = experiment: Glutamate-induced loss of cell viability in PC12 cells (MTT); type: cell-based
Procedure: For the cell viability assays, 24 h after seeding in 96-well plates, the cultures were pretreated with N-[2-(5-methoxy-indol-3-yl)-ethyl]-comanilamide (100 pm, 1 nM, 10 nM, 100 nM, 1 uM and 10 uM) or melatonin (1 uM) for 0 h before exposure to 4 mM glutamate. After 24 h incubation, cellular viability was evaluated by MTT assay.
PC12 cell viability was determined by the conventional 3-(4,5-dimethylthiazol-2-yl)-2,5-diphenyltetrazolium bromide (MTT) assay. PC12 cells were treated with MTT solution (0.5 mg/ml) and were then incubated at 37° C. for 4 hrs. The medium was removed and 150 μl DMSO/well was added to dissolve formazan. The absorbance at 570 nm was recorded using an enzyme-linked immunosorbent assay reader and the percentage of cell growth inhibition was calculated as follows: Cell viability (%)=A570 (treatment)/A570 (control)×100.

C57BL/6 mice [3] = experiment: MPTP mouse model of Parkinson's disease, striatal dopamine, DOPAC and HVA levels (HPLC); type: in vivo
From the text: as §1, §2
To measure striatal dopamine, DOPAC and HVA levels, mice were sacrificed at day 17 after the final injection of MPTP. The striata were dissected and stored at −70° C. before assays. Striatal dopamine levels were measured by high performance liquid chromatography (HPLC) with electrochemical detection.

[4] = saline mice, 100 or 200 mg/kg i.p., both p>0.05
[5] = MPTP mice, 100 or 200 mg/kg/day i.p.

COc1ccc2[nH]cc(CCNC(=O)c3cc(=O)cco3)c2c1 [N-[2-(5-methoxy-indol-3-yl)-ethyl]-comanilamide]
T-turn, pole test, vs MPTP mice (C57BL/6 mice [1]; 100 mg/kg i.p., p<0.05): showed less level of the T-turn
T-turn, pole test, vs MPTP mice (C57BL/6 mice [1]; 200 mg/kg i.p., p>0.05): no significant difference in the T-turn
T-turn, pole test, vs control mice (C57BL/6 mice [1]; [4]): no significant difference in the T-turn
neurotrophic effect, compound alone ([2]; 100 nM alone in the culture medium, without BDNF): no neurotrophic effect
activity at 0.1 µM ([2]; Rattus norvegicus, Primary cortical neuron, 120 h, 100 nM + BDNF 0.5 ng/ml, 5 days of culture, read-out: neurite length, % of control): ~145%
effect on cell viability without glutamate (PC12 cells; 10 uM, without glutamate): had no effect on the cell viability
effect on glutamate-induced loss of cell viability (PC12 cells; 100 pm to 10 uM, all doses, 4 mM glutamate, 24 h, MTT): significantly attenuated glutamate-induced loss of cell viability
striatal dopamine level vs MPTP mice (C57BL/6 mice [3]; MPTP mice, 100 or 200 mg/kg i.p., p<0.01 and p<0.05, respectively): showed more level of dopamine concentration
striatal DOPAC level (C57BL/6 mice [3]; [5]): ameliorated the MPTP-induced reductions
striatal HVA level (C57BL/6 mice [3]; [5]): ameliorated the MPTP-induced reductions
striatal dopamine level vs control mice (C57BL/6 mice [3]; [4]): no significant difference in dopamine level

From patent publication US9101613B2, “Methods for treating neurological disease” (Neurim Pharmaceuticals (1991) Ltd., priority 2006, dated 2015)
